Like-named read-outs stand apart in the source and are kept apart here.
Assays:
Format in all cases: binding
[1] = biological target: T1, XIAP His-BIR2 (124-240/C202A/C213G) (Homo sapiens, UniProt P98170, C202A/C213G); experiment: XIAP-BIR2/SMAC Peptide AlphaScreen Assay
T1 construct: additions of His-BIR2 (124-240/C202A/C213G), Biotinylated SMAC peptide
Method: A. XIAP-BIR2/SMAC Peptide AlphaScreen Assay Assays were performed in white, flat-bottom, 384-well ProxiPlates (Perkin Elmer). […] The reaction was incubated at room temperature for 60 minutes. After 60 minutes, 2.5 μL of Alphascreen detection reagent (Perkin Elmer) was added to the reaction mixture and incubated at room temperature in the dark for 120 minutes. The Alphascreen signal generated by the reaction was detected on the Envision Plate Reader. […] Compounds were dissolved at 10 mM in dimethylsulfoxide (DMSO) and evaluated at eleven concentrations. IC50 values were derived by non-linear regression analysis.

[2] = biological target: N-His-Tb-BIR3(241-356, XIAP) (Homo sapiens, UniProt P98170); experiment: XIAP-BIR3 SMAC Peptide Fluorescence Polarization Assay (FPA)
[3] = biological target: T2, His-BIR3 (241-356, XIAP) (Homo sapiens, UniProt P98170); experiment: XIAP-BIR3/SMAC Homogeneous Time Resolved Fluorescence (HTRF) Assay; conditions: Table 4
T2 construct: additions of His-BIR3 (241-356, XIAP), fluorescein labeled SMAC peptide

[4] = biological target: T3, His-BIR2-3 (125-356, C202A/C213G, XIAP) (Homo sapiens, UniProt P98170, C202A/C213G); experiment: XIAP-BIR2-3 Dimeric SMAC Peptide Homogeneous Time Resolved Fluorescence (HTRF) Assay; conditions: XIAP BIR2-3, HTRF, Table 4
T3 construct: additions of His-BIR2-3 (125-356, C202A/C213G, XIAP), fluorescein labeled dimeric SMAC peptide

[5] = XIAP BIR2, AlphaScreen, Table 2, read-out: BIR2 IC50
[6] = XIAP BIR2, Alphascreen, Table 4, read-out: BIR2 Alpha Screen IC50

N-His-Tb-BIR3(241-356, XIAP), sequence (P98170 241-356): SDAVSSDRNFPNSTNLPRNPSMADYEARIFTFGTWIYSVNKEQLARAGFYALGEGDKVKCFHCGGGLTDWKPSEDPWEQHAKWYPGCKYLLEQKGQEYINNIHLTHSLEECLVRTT
T2 sequence (P98170 241-356): as above
T3 sequence (P98170 125-356 C202A/C213G): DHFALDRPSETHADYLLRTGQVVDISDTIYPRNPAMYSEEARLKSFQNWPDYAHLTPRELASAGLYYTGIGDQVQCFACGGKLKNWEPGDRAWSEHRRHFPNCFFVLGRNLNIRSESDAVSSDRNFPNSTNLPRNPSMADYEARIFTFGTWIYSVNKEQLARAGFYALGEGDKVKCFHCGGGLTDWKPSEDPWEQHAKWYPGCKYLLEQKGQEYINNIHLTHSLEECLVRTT
T1 sequence (P98170 124-240 C202A/C213G): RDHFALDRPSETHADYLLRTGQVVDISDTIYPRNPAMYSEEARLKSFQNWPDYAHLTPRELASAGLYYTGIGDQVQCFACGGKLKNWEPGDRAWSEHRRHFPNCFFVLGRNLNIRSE

SMILES	IC50 [1, 5]	IC50 [2]	IC50 [1, 6]	IC50 [3]	IC50 [4]
CN[C@@H](C)C(=O)N[C@H](C(=O)N1C[C@@H]2C[C@H]1C(=O)N[C@@H](Cc1ccccc1)C(=O)N[C@H](C(=O)O)Cc1ccc(cc1)OCc1cn(nn1)[C@H]1C[C@@H](C(=O)N[C@@H](Cc3ccccc3)C(=O)N[C@H](C(=O)O)Cc3ccc(cc3)OCc3cn2nn3)N(C(=O)[C@@H](NC(=O)[C@H](C)NC)C2CCCCC2)C1)C1CCCCC1 [Compound 120]	< 2000 nM	< 50 nM			
C=CCOc1ccc(C[C@@H]2NC(=O)[C@@H]3C[C@@H](CN3C(=O)[C@@H](NC(=O)[C@H](C)NC)C(C)C)n3cc(nn3)COc3ccc(cc3)C[C@@H](C(=O)O)NC(=O)[C@H](Cc3ccc(OCC=C)cc3)NC(=O)[C@@H]3C[C@@H](CN3C(=O)[C@@H](NC(=O)[C@H](C)NC)C(C)C)n3cc(nn3)COc3ccc(cc3)C[C@@H](C(=O)O)NC2=O)cc1 [Compound 126]	2000 to 12000 nM	50 to 100 nM			
CN[C@@H](C)C(=O)N[C@@H](CC1CCCCC1)C(=O)N1C[C@@H]2C[C@H]1C(=O)N[C@@H](Cc1ccccc1)C(=O)N[C@H](C(=O)O)Cc1ccc(cc1)OCc1cn(nn1)[C@H]1C[C@@H](C(=O)N[C@@H](Cc3ccccc3)C(=O)N[C@H](C(=O)O)Cc3ccc(cc3)OCc3cn2nn3)N(C(=O)[C@H](CC2CCCCC2)NC(=O)[C@H](C)NC)C1 [Compound 109]	< 2000 nM	< 50 nM			
CN[C@@H](C)C(=O)N[C@H](C(=O)N1C[C@@H]2C[C@H]1C(=O)N[C@@H](Cc1ccc3ccccc3c1)C(=O)N[C@H](C(=O)O)Cc1ccc(cc1)OCc1cn(nn1)[C@H]1C[C@@H](C(=O)N[C@@H](Cc3ccc4ccccc4c3)C(=O)N[C@H](C(=O)NS(C)(=O)=O)Cc3ccc(cc3)OCc3cn2nn3)N(C(=O)[C@@H](NC(=O)[C@H](C)NC)C(C)(C)C)C1)C(C)(C)C [Compound 1002]		< 50 nM	< 2000 nM		
CN[C@@H](C)C(=O)N[C@H](C(=O)N1C[C@@H]2C[C@H]1C(=O)N[C@@H](Cc1ccc3ccccc3c1)C(=O)N[C@H](C(=O)NS(=O)(=O)c1ccccc1)Cc1ccc(cc1)OCc1cn(nn1)[C@H]1C[C@@H](C(=O)N[C@@H](Cc3ccc4ccccc4c3)C(=O)N[C@H](C(=O)NS(=O)(=O)c3ccccc3)Cc3ccc(cc3)OCc3cn2nn3)N(C(=O)[C@@H](NC(=O)[C@H](C)NC)C(C)(C)C)C1)C(C)(C)C [Compound 1003]		50 to 100 nM	< 2000 nM		
CN[C@@H](C)C(=O)N[C@H](C(=O)N1C[C@@H]2C[C@H]1C(=O)N[C@@H](COCc1ccccc1)C(=O)N[C@H](C(=O)O)Cc1ccc(cc1)OCc1cn(nn1)[C@H]1C[C@@H](C(=O)N[C@@H](COCc3ccccc3)C(=O)N[C@H](C(=O)O)Cc3ccc(cc3)OCc3cn2nn3)N(C(=O)[C@@H](NC(=O)[C@H](C)NC)C(C)C)C1)C(C)C [Compound 123]	2000 to 12000 nM	> 100 nM			
CN[C@@H](C)C(=O)N[C@@H](CC(C)C)C(=O)N1C[C@@H]2C[C@H]1C(=O)N[C@@H](Cc1ccccc1)C(=O)N[C@H](C(=O)O)Cc1ccc(cc1)OCc1cn(nn1)[C@H]1C[C@@H](C(=O)N[C@@H](Cc3ccccc3)C(=O)N[C@H](C(=O)O)Cc3ccc(cc3)OCc3cn2nn3)N(C(=O)[C@H](CC(C)C)NC(=O)[C@H](C)NC)C1 [Compound 119]	< 2000 nM	< 50 nM			
CN[C@@H](C)C(=O)N[C@H](C(=O)N1C[C@@H]2C[C@H]1C(=O)N[C@@H](Cc1c[nH]c3ccccc13)C(=O)N[C@H](C(=O)O)Cc1ccc(cc1)OCc1cn(nn1)[C@H]1C[C@@H](C(=O)N[C@@H](Cc3c[nH]c4ccccc34)C(=O)N[C@H](C(=O)O)Cc3ccc(cc3)OCc3cn2nn3)N(C(=O)[C@@H](NC(=O)[C@H](C)NC)C(C)C)C1)C(C)C [Compound 125]	< 2000 nM	< 50 nM			
CN[C@@H](C)C(=O)N[C@H](C(=O)N1C[C@@H]2C[C@H]1C(=O)N[C@@H](Cc1ccc3ccccc3c1)C(=O)N[C@H](C(=O)NS(C)(=O)=O)Cc1ccc(cc1)OCc1cn(nn1)[C@H]1C[C@@H](C(=O)N[C@@H](Cc3ccc4ccccc4c3)C(=O)N[C@H](C(=O)NS(C)(=O)=O)Cc3ccc(cc3)OCc3cn2nn3)N(C(=O)[C@@H](NC(=O)[C@H](C)NC)C(C)(C)C)C1)C(C)(C)C [Compound 1004]		50 to 100 nM	< 2000 nM		
CN[C@@H](C)C(=O)N[C@H](C(=O)N1CC2C[C@H]1C(=O)N[C@@H](Cc1ccc3ccccc3c1)C(=O)N[C@H](C(=O)O)Cc1cn(nn1)[C@H]1C[C@@H](C(=O)N[C@@H](Cc3ccc4ccccc4c3)C(=O)N[C@H](C(=O)O)Cc3cn2nn3)N(C(=O)[C@@H](NC(=O)[C@H](C)NC)C(C)C)C1)C(C)C [Compound 140]	< 2000 nM	< 50 nM			
CN[C@@H](C)C(=O)N[C@H](C(=O)N1C[C@@H]2C[C@H]1C(=O)N[C@@H](Cc1ccc3ccccc3c1)C(=O)N[C@H](C(=O)O)Cc1ccc(cc1)OCc1ccc(cc1)-c1cn(nn1)[C@H]1C[C@@H](C(=O)N[C@@H](Cc3ccc4ccccc4c3)C(=O)N[C@H](C(=O)O)Cc3ccc(cc3)OCc3cn2nn3)N(C(=O)[C@@H](NC(=O)[C@H](C)NC)C(C)(C)C)C1)C(C)(C)C [Compound 1000]		50 to 100 nM			
CN[C@@H](C)C(=O)N[C@H](C(=O)N1C[C@@H]2CC1C(=O)N[C@@H](Cc1ccccc1)C(=O)N[C@H](C(=O)O)Cc1ccc(cc1)OCc1cn(nn1)[C@H]1C[C@@H](C(=O)N[C@@H](Cc3ccccc3)C(=O)NCc3cn2nn3)N(C(=O)[C@@H](NC(=O)[C@H](C)NC)C(C)C)C1)C(C)C [Compound 135]	< 2000 nM				
CN[C@@H](C)C(=O)N[C@H](C(=O)N1C[C@@H]2C[C@H]1C(=O)N[C@@H](Cc1ccccc1)C(=O)NCc1cn(nn1)[C@H]1C[C@@H](C(=O)N[C@@H](Cc3ccccc3)C(=O)NCc3cn2nn3)N(C(=O)[C@@H](NC(=O)[C@H](C)NC)C(C)C)C1)C(C)C [Compound 116]	< 2000 nM				
CN[C@@H](C)C(=O)N[C@H](C(=O)N1C[C@@H]2C[C@H]1C(=O)N[C@@H](Cc1ccc3ccccc3c1)C(=O)N[C@H](C(=O)O)Cc1ccc(cc1)OCc1cn(nn1)[C@H]1C[C@@H](C(=O)N[C@@H](Cc3ccc4ccccc4c3)C(=O)N[C@H](C(=O)NCc3ccc(-c4nnn[nH]4)cc3)Cc3ccc(cc3)OCc3cn2nn3)N(C(=O)[C@@H](NC(=O)[C@H](C)NC)C(C)(C)C)C1)C(C)(C)C [Compound 1023]				< 10 nM	1 to 10 nM
CN[C@@H](C)C(=O)N[C@H](C(=O)N1C[C@@H]2C[C@H]1C(=O)N[C@@H](Cc1ccc3ccccc3c1)C(=O)N[C@H](C(=O)O)Cc1ccc(cc1)OCc1cn(nn1)[C@H]1C[C@@H](C(=O)N[C@@H](Cc3ccc4ccccc4c3)C(=O)N[C@H](C(=O)NCc3cccc(-c4nnn[nH]4)c3)Cc3ccc(cc3)OCc3cn2nn3)N(C(=O)[C@@H](NC(=O)[C@H](C)NC)C(C)(C)C)C1)C(C)(C)C [Compound 1025]				< 10 nM	1 to 10 nM
CN[C@@H](C)C(=O)N[C@H](C(=O)N1C[C@@H]2C[C@H]1C(=O)N[C@@H](Cc1ccc3ccccc3c1)C(=O)N[C@H](C(=O)O)Cc1ccc(cc1)OCc1cn(nn1)[C@H]1C[C@@H](C(=O)N[C@@H](Cc3ccc4ccccc4c3)C(=O)N[C@H](C(=O)O)Cc3ccc(cc3)OCc3cn2nn3)N(C(=O)[C@@H](NC(=O)[C@H](C)NC)C23CC4CC(CC(O)(C4)C2)C3)C1)C12CC3CC(CC(O)(C3)C1)C2 [Compound 1009]				< 10 nM	1 to 10 nM
